Assay results taken from patent publication US20230338337A1, “BIOMARKERS FOR CANCER THERAPY USING MDM2 ANTAGONISTS” (OTSUKA PHARMACEUTICAL CO., LTD., priority 2019, published 2023).
Entries after “also recorded” stand apart in the source; their conditions may differ.

Columns and labels:
[1] = system: 210 p53 wild-type cancer cell lines; experiment: Cell line panel screen, CellTiter-Glo, 3 days; type: cell-based; details: ANOVA, adjusted p-value<0.02
Method: Genomic features for these cell lines such as somatic mutations, copy number alterations and hypermethylation were obtained from the list of Cancer Functional Events as reported by Garnett et al (2016). ANOVA method was used to identify significant associations of genomics features to Compound 1 drug response.
Cancer cells were cultured in appropriate medium.
Each cell line was tested in triplicates.

OCI-AML3 cells = experiment: Induction of apoptosis by cleaved caspase-3 cytometry; type: cell-based; details: 0.1 μM COMPOUND 1 alone, 72 h
[2] = system: MESO-29T mesothelioma cell line; experiment: Induction of activated caspase-3; type: cell-based, human; details: 72-hour treatment with 1 μM Compound 1
Method: (§1) In certain embodiments, the MDM2 antagonist induces apoptosis of the cancer cell. Apoptosis may typically be mediated via activated caspase-3. Induction of apoptosis can be determined by detecting cells that are positive for activated caspase-3 following 72-hour treatment with 1 μM of the MDM2 antagonist. […] In certain embodiments, at least 10%, at least 20% or at least 30% of cells staining positive for activated caspase-3 is an indicator of induced apoptosis. […] Active caspase-3 staining kits are commercially-available, for example the “Cleaved Caspase-3 Staining Kit (Red)” available from Abcam (Cambridge, UK) as catalogue number ab65617. The Invitrogen Cell Event dye (C10423) may also be used.
(§2) The extent of Compound 1-induced apoptosis is not predicted from the IC50 values obtained from the Alarmar Blue proliferation assays (Table 1), thus emphasising the impact of grouping cell lines specifically based on their apoptotic potential for subsequent bioinformatics analyses described in the following section.

[3] = system: #26 mesothelioma cell line; experiment: Induction of activated caspase-3; type: cell-based, human; details: 72-hour treatment with 1 μM Compound 1
Method: as §1, §2

[4] = system: #24 mesothelioma cell line; experiment: Induction of activated caspase-3; type: cell-based, human; details: 72-hour treatment with 1 μM Compound 1
Method: as §1, §2

[5] = system: MESO-50T mesothelioma cell line; experiment: Induction of activated caspase-3; type: cell-based, human; details: 72-hour treatment with 1 μM Compound 1
Method: as §1, §2

[6] = system: #18 mesothelioma cell line; experiment: Induction of activated caspase-3; type: cell-based, human; details: 72-hour treatment with 1 μM Compound 1
Method: as §1, §2

[7] = system: #12 mesothelioma cell line; experiment: Induction of activated caspase-3; type: cell-based, human; details: 72-hour treatment with 1 μM Compound 1
Method: as §1, §2

[8] = system: #40 mesothelioma cell line; experiment: Induction of activated caspase-3; type: cell-based, human; details: 72-hour treatment with 1 μM Compound 1
Method: as §1, §2

[9] = system: #35 mesothelioma cell line; experiment: Induction of activated caspase-3; type: cell-based, human; details: 72-hour treatment with 1 μM Compound 1
Method: as §1, §2

[10] = system: MESO-7T mesothelioma cell line; experiment: Induction of activated caspase-3; type: cell-based, human; details: 72-hour treatment with 1 μM Compound 1
Method: as §1, §2

[11] = system: #2 mesothelioma cell line; experiment: Induction of activated caspase-3; type: cell-based, human; details: 72-hour treatment with 1 μM Compound 1
Method: as §1, §2

[12] = system: #19 mesothelioma cell line; experiment: Induction of activated caspase-3; type: cell-based, human; details: 72-hour treatment with 1 μM Compound 1
Method: as §1, §2

[13] = system: #52 mesothelioma cell line; experiment: Induction of activated caspase-3; type: cell-based, human; details: 72-hour treatment with 1 μM Compound 1
Method: as §1, §2

[14] = system: 12 p53 wild-type, patient-derived mesothelioma cell lines; experiment: 72-hour Alamar Blue proliferation assay, panel; type: cell-based; details: Homo sapiens
Method: (§3) For all cell lines the number of viable cells was determined by measuring the conversion of Rezasurin (Alamar Blue) to Resorufin in response to mitochondrial activity of the viable cells. Alamar Blue™ (AbD Serotec/Bio-Rad, Hercules, CA, USA) was added to 10% of the well volume (20 μl/well) towards the end of the treatment period and incubated for a further 8-24 h. The plate was then read at 535 nm (excitation) and 590 nm (emission) on a SpectraMax Gemini reader (Molecular Devices, Sunnyvale, CA, USA). Each well was calculated as percentage of the mean DMSO control.

[15] = system: Caki-1 renal cancer cell line with BAP1 knock-down; experiment: CAKI1 shBAP1 apoptotic assay (Annexin V); type: cell-based, human; details: 72 hours with 1 uM Compound 1; BAP1 loss versus control
From the text: 3 independent shRNAs targeting BAP1 were used and BAP1 knock-down levels achieved with 2 independent shRNAs.

[16] = system: human patient-derived mesothelioma cell lines; experiment: Induction of activated caspase-3, panel; type: cell-based; details: all 12 cell lines
Method: as §1, §2

[17] = system: MESO-29T mesothelioma cell line; experiment: 72-hour Alamar Blue proliferation assay; type: cell-based; details: Homo sapiens, read-out: Mean Compound 1 Proliferation IC50 (μM), cell line MESO-29T
Method: as §3

[18] = system: #24 mesothelioma cell line; experiment: 72-hour Alamar Blue proliferation assay; type: cell-based; details: Homo sapiens, read-out: Mean Compound 1 Proliferation IC50 (μM), cell line #24
Method: as §3

[19] = system: MESO-50T mesothelioma cell line; experiment: 72-hour Alamar Blue proliferation assay; type: cell-based; details: Homo sapiens, read-out: Mean Compound 1 Proliferation IC50 (μM), cell line MESO-50T
Method: as §3

[20] = system: #12 mesothelioma cell line; experiment: 72-hour Alamar Blue proliferation assay; type: cell-based; details: Homo sapiens, read-out: Mean Compound 1 Proliferation IC50 (μM), cell line #12
Method: as §3

[21] = system: #40 mesothelioma cell line; experiment: 72-hour Alamar Blue proliferation assay; type: cell-based; details: Homo sapiens, read-out: Mean Compound 1 Proliferation IC50 (μM), cell line #40
Method: as §3

[22] = system: #35 mesothelioma cell line; experiment: 72-hour Alamar Blue proliferation assay; type: cell-based; details: Homo sapiens, read-out: Mean Compound 1 Proliferation IC50 (μM), cell line #35
Method: as §3

[23] = system: #2 mesothelioma cell line; experiment: 72-hour Alamar Blue proliferation assay; type: cell-based; details: Homo sapiens, read-out: Mean Compound 1 Proliferation IC50 (μM), cell line #2
Method: as §3

[24] = system: #19 mesothelioma cell line; experiment: 72-hour Alamar Blue proliferation assay; type: cell-based; details: Homo sapiens, read-out: Mean Compound 1 Proliferation IC50 (μM), cell line #19
Method: as §3

[25] = system: #52 mesothelioma cell line; experiment: 72-hour Alamar Blue proliferation assay; type: cell-based; details: Homo sapiens, read-out: Mean Compound 1 Proliferation IC50 (μM), cell line #52
Method: as §3

[26] = system: primary mesothelioma cell line Meso #24 with BAP1 knockdown; experiment: Apoptosis after BAP1 shRNA knockdown; type: cell-based, human; details: BAP1 knockdown versus control
From the text: BAP1 shRNA was used on primary mesothelioma cell line Meso #24 to achieves table BAP1 knockdown.

Compound: CC[C@@](O)(c1cc(F)c2c(c1)C(=O)N([C@H](c1ccc(Cl)cc1)[C@H](C)C(=O)O)[C@@]2(OC)c1ccc(Cl)cc1)C1CCOCC1 [Compound 1, (2S,3S)-3-(4-chlorophenyl)-3-[(1R)-1-(4-chlorophenyl)-7-fluoro-5-[(1S)-1-hydroxy-1-(oxan-4-yl)propyl]-1-methoxy-3-oxo-2,3-dihydro-1H-isoindol-2-yl]-2-methylpropanoic acid]
- sensitivity of cell lines with CDKN2A loss versus wild-type CDKN2A [1]: enhanced sensitivity
- level of apoptosis (cleaved caspase-3) (OCI-AML3 cells): did not induce a high level of apoptosis; also recorded: does not induce substantial levels of cell death by apoptosis
- apoptosis (cells positive for activated caspase-3) [2]: < 40%
- apoptosis (cells positive for activated caspase-3) [3]: < 40%
- apoptosis (cells positive for activated caspase-3) [4]: < 40%
- apoptosis (cells positive for activated caspase-3) [5]: < 40%
- apoptosis (cells positive for activated caspase-3) [6]: < 40%
- cells staining positive for activated caspase-3 [7]: > 40%
- cells staining positive for activated caspase-3 [8]: > 40%
- apoptosis (cells positive for activated caspase-3) [9]: < 40%
- cells staining positive for activated caspase-3 [10]: > 40%
- cells staining positive for activated caspase-3 [11]: > 40%
- cells staining positive for activated caspase-3 [12]: > 40%
- cells staining positive for activated caspase-3 [13]: > 40%
- IC50 ([14]; in 7 of the 12 cell lines): < 100 nM
- IC50 ([14]; in 11 cell lines): < 400 nM
- % of cells undergoing apoptosis (Annexin V) [15]: increased apoptosis
- activated caspase-3 induction [16]: increase in activated caspase-3 was observed in all cell lines
- IC50 [17]: > 10 µM
- IC50 [18]: 0.094 µM
- IC50 [19]: 0.067 µM
- IC50 [20]: 0.078 µM
- IC50 [21]: 0.0092 µM
- IC50 [22]: 0.045 µM
- IC50 [23]: 0.062 µM
- IC50 [24]: 0.17 µM
- IC50 [25]: 0.076 µM
- apoptosis after Compound 1 treatment [26]: increased apoptosis
